# Laboratory results reported in patent US20100099756A1, “USES OF INCENSOLE, INCENSOLE ACETATE AND DERIVATIVES THEREOF” (YISSUM RESEARCH DEVELOPMENT COMPANY OF THE HEBREW …, priority 2006, published 2010).
# Key:
# [1] = system: IKKα and IKKβ phosphorylation; assay: TNFα-induced phosphorylation of the IKKs in HeLa cells; type: cell-based; conditions: TNFα 20 ng/ml for 20 minutes, IA 140 μM
# Method: (§1) (A) IA inhibits IKK phosphorylation. HeLa cells were stimulated with TNFα (20 ng/ml for 20 minutes) in the absence or presence of IA (140 μM) as shown. Whole cell extracts were prepared and analyzed for the phosphoryation of IKKα and IKKβ by Western blotting (WB). (B) HeLa cells were stimulated with TNFα (20 ng/ml for 20 minutes) in the absence or presence of IA (140 μM). Cells were fixed and then stained with rabbit anti-p65 followed by anti-rabbit Rhodamine Red-labeled secondary Ab. and with DAPI for nuclei location (not shown). (B1) HeLa cells, no treatment; (B2) HeLa cells +IA; (B3) HeLa cells +TNF; (B4) HeLa cells +IA+TNF. The cells were examined under an Axioscope Zeiss microscope with a plan-Neofluor * 60 lens. Results of one of three independent experiments are shown.
# Western Blot (WB). Following separation by SDS-PAGE, proteins were blotted to a polyvinylidene difluoride (PVDF) membrane (Millipore). The membrane was blocked in 5% (w/v) milk powder and then incubated in TBST containing the primary antibody and 2% (w/v) milk powder. All phospho-specific antibodies were purchased from Cell signaling Inc. αIκBa, αp65 and αCOX2 antibodies from Santa Cruz Inc. (California, USA). […]
# NF-κB (p65 sub-unit) = assay: p65 subunit immunostaining, nuclear accumulation of NF-κB in HeLa cells; type: cell-based; conditions: TNFα stimulation, IA 140 μM
# Method: as §1
# p65 Subunit Immunostaining. HeLa Cells were preincubated with IA and then stimulated with TNFα as described in the IκBα degradation assay above. Cells were then fixed with formaldehyde 1%, permeabilized with 0.25% Triton X-100, stained with rabbit anti-p65 (Santa Cruz, Calif., USA) and visualized with anti-rabbit Rhodamine Red-labeled secondary antibody (Jackson ImmunoResearch, Baltimore, USA). Cells were also stained with DAPI (blue) for nuclei location (data not shown). The cells were examined under an Axioscope Zeiss microscope with a plan-Neofluor * 60 lens.
# COX-2 = COX-2 production in LPS-stimulated RAW 264.7 cells; type: cell-based, mice; conditions: 60 μM, P<0.001
# Method: (A(1)) Representative Western Blot bands of Cox2 are shown with tubulin as reference. (A(2)) COX-2 levels were measured in RAW 264.7 cells incubated for 24 hrs. with LPS in the presence or in the absence of IA (60 μM/ml); **, p<0.001. (B) Murine peritoneal macrophages were activated by LPS (1 μg/ml for 24 hrs.) in absence of IA or in the presence of IA at indicated concentrations. NO generation was determined by measuring the nitrite accumulated in the supernatants; **, p<0.001. (C) Generation of ROS by RAW 264.7 macrophages (5×10^5 cells in 0.5 ml Hanks' balanced salt solution) was measured by chemiluminescence. Cells were pre-incubated with various doses of IA for 24 hrs before luminol (10 μl) and zymosan (30 μl) were added to the tubes; *, p<0.05; **, p<0.01; ***, p<0.001
# COX-2 Production. RAW 264.7 cells were treated with subtoxic concentrations (confirmed by MTT colorimetric assay) of incensole acetate (10-20 μg/ml, dissolved in ethanol and further diluted in medium) and incubated with lipopolysaccharide (LPS, E. coli 1 μg/ml for 24 hs, Sigma, Israel) for 16-24 hrs. […]
# Proteins were extracted from cells in NP-40 lysis buffer (50 mM Tris/HCl pH 7.5, 150 mM NaCl, 0.1% SDS, 1% NP-40, 10 mM EDTA, 1 mM phenylmethylsulfonylfluoride (PMSF), and 10 mM DTT). Total protein concentration was determined using the Bradford method and the lysates were analyzed by Western blotting.
# inflamed paw = assay: Inflamed paw model (carrageenin) in mice; type: in vivo, Sabra female mice
# Method: IA (50 mg/kg) or vehicle were injected i.p. to Sabra female mice (5 per group) 30 min before induction of the inflammatory stimulus. Hind paws were then injected with 50 μl of saline or λ-carrageenin (4%). Ensuing inflammatory swelling was measured by increase in foot volume in a plethysmometer. […] There were highly significant effects of treatment (F=11.7, df=3.64, P<0.001). *, different from IA +saline, P<0.05; **, ***, different from vehicle+saline at P<0.01, P<0.001 respectively; #, different from vehicle+carrageenin, P<0.05.
# Inflamed Paw Model. Sabra female mice were used to assess the response to IA or vehicle in an in vivo model of inflammation. Drug or vehicle was administered 30 min before induction of the inflammatory stimulus. Mice (5 per group) were injected i.p. with vehicle (isopropanol:Emulphor:saline=1:1:18) or with vehicle containing IA (50 mg/kg, i.p). Emulphor (a polyethoxylated vegetable oil) is a commercial emulsifier. Hind paws were injected with 50 μl of saline (left or right alternatively) or λ-carrageenin (4%, right or left alternatively), using 26G needles. Ensuing inflammatory swelling was measured by increase in foot volume in a plethysmometer (Ugo-Basile, Italy). Paw volume as well as redness (as a measure of erythema) and licking (as a measure of pain) were assayed before carrageenin application and every 60 min until 4 hrs.
# [2] = system: locomotion and cataleptic response; assay: Open field test and ring test; type: in vivo, female Sabra mice; conditions: i.p., Sabra mice
# Method: To study the functional effects of IA on the CNS, IA was assayed in a panel of standard behavioral assays in mice (female Sabra strain, 15-20 weeks old), namely: the elevated plus maze [Crawley, J. N. What's Wrong with my Mouse? Behavioral Phenotyping of Transgenic and Knockout Mice (Wiley-Liss, New York, 2000)], the Porsolt forced-swimming test [Petit-Demouliere, B., Chenu, F. & Bourin, M. Forced swimming test in mice: a review of antidepressant activity. Psychopharmacology 177, 245-255 (2005)], locomotion in the open field test and cataleptic response in a ring test [Fride, E. & Mechoulam, R. Pharmacological activity of the cannabinoid receptor agonist, anandamide, a brain constituent. Eur. J. Pharmacol. 231, 313-314 (1993). The elevated plus maze assay is based on the preference of mice for the closed arms of a maze, apparently due to fear of open spaces.
# [3] = system: receptors known to be involved in psychoactivity; assay: Interaction with receptors involved in psychoactivity
structure (smiles),measurement,setting,value
"CC(=O)OC1CC/C(C)=C/CC/C(C)=C/CC2(C(C)C)CCC1(C)O2 (centres unmarked) [IA, incensole acetate]",IKKα/IKKβ phosphorylation,[1],inhibition of IKKα/IKKβ phosphorylation
same,nuclear accumulation of NF-κB (p65),NF-κB (p65 sub-unit),inhibited the nuclear accumulation of NF-κB
same,COX-2 production,COX-2,inhibited
same,inflammation (inflamed paw volume),"inflamed paw; 50 mg/kg i.p. 30 min before carrageenin, 4 hrs period",significantly reduced inflammation
same,"other inflammatory parameters, such as redness and pain","inflamed paw; 50 mg/kg i.p., data not shown",significantly reduced
same,immobility on a ring,[2],impaired immobility on a ring
same,open field behavior,[2],significant reduction of open field behavior
same,interaction with receptors known to be involved in psychoactivity,[3],does not interact
